Experimental data published in the supplement of paper PMC11997997.

Assays:
[1] = test system: Mycobacterium tuberculosis CDC1551 (intracellular, in murine BMDM); experiment: area under intracellular growth-inhibition dose-response curve (AUC (% inhibition x dose, relative)); higher = more potent; conditions: duration: 6 days; dose range: 0.13-80 uM, 8 points
Method in brief: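 The value is the area under the growth-inhibition dose–response curve, calculated in GraphPad Prism. Primary murine bone marrow-derived macrophages were seeded in 384-well opaque plates and, 24 h later, infected for 1 h with luciferase-expressing M. tuberculosis CDC1551 at multiplicity of infection 1. Cells were then exposed for 6 days to an 8-dose, 2.5-fold series (final 80–0.13 μM). Growth was read with the Bright-Glo luciferin assay and normalised to a reference drug control and to the lowest-concentration wells.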

[2] = test system: murine bone marrow-derived macrophages; experiment: area under cytotoxicity dose-response curve (AUC (% cytotoxicity x dose, relative)); higher = more cytotoxic; conditions: duration: 6 days; dose range: 0.13-80 uM, 8 points
Method in brief: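 Values are the area under the cytotoxicity dose–response curve, calculated with GraphPad Prism version 10. Primary murine bone marrow-derived macrophages were exposed to final concentrations of 80–0.13 μM for 6 days, and viability was read by CellTiter-Glo luminescence with normalisation to vehicle and positive control wells.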

| SMILES | area under intracellular growth-inhibition dose-response curve [1] | area under cytotoxicity dose-response curve [2] |
| --- | --- | --- |
| CCO.C[C@H]1c2cccc(O)c2C(=O)C2=C(O)[C@]3(O)C(O)=C(C(N)=O)C(=O)[C@@H](N(C)C)C3[C@@H](O)C21.Cl.O (stereo partly specified) | 242 | 81.3 |
| Cc1cc(=O)c2cc(Br)ccc2n1CC(=O)NCc1ccccc1 | 233 | 41.6 |
| CCCCC(=O)NCc1ccc(F)cc1 | 199 | < 0 |
| O=C(NC1CCCCCC1)c1ccco1 | 214 | 47.2 |
| COc1ccc(OCc2n(CC(=O)OC3CC(C)CCC3C(C)C)c3ccccc3[n+]2C)cc1.[Cl-] (stereo unspecified) | 139 | 58.8 |
| C/C(=N\NC(N)=S)c1ccc(Cl)s1 | 263 | < 0 |
| COc1ccc(OC)c2nc3c(cc12)CCC3 | 211 | 23.1 |
| COc1ccc(/C=N/NC(N)=S)cc1OC(=O)c1ccccc1 | 241 | 106 |
| Cc1ccccc1-n1c(C)cc(/C=N/NC(=O)c2ccncc2)c1C | 214 | < 0 |
| O=C(NCc1ccc(F)cc1)c1cc2ccccc2o1 | 254 | 48.5 |
| O=C(NCC1CC1(Cl)Cl)Nc1ccc(Cl)c(Cl)c1 (stereo unspecified) | 239 | 111 |
| CCCCNC(=O)/C=C/c1cccs1 | 191 | 7.87 |
| COc1ccc(Cl)cc1NC(=O)C(C)OC(=O)Cn1cc(C(F)(F)F)ccc1=O (stereo unspecified) | 24.1 | 119 |
| O=C(N/N=C/c1cccc2ccccc12)c1ccncc1 | 262 | 67.8 |
| CC(C)/N=c1\cc2n(-c3ccc(Cl)cc3)c3ccccc3nc-2cc1Nc1ccc(Cl)cc1 | 208 | 73.5 |
| CCCN1CNC(=S)N(c2ccc(C(=O)OCC)cc2)C1 | 83.8 | 9 |
| CC(NC(=S)Nc1ccc(OC(F)F)c(Cl)c1)C(C)(C)C (stereo unspecified) | 198 | 12.4 |
| O=C(COc1ccccc1)NCc1ccccc1 | 163 | 14.8 |
| S=C(Nc1ccccc1)Nc1ccc(OCc2ccccc2)cc1 | 272 | < 0 |
| O=C(/C=C/c1ccc2c(c1)OCO2)N1CCCCC1 | 155 | 15.2 |
| O=Cc1c(Nc2cccc(C(F)(F)F)c2)nc2ccccn2c1=O | 234 | < 0 |
| O=C(NCc1ccco1)c1csc2c1CCCCC2 | 212 | 55.5 |
| CC(=O)c1ccc(NC(=S)Nc2ccc(N3CCOCC3)cc2)cc1.Cl | 260 | 40.4 |
| Cc1nn(C(C)C(=O)NC2C(=O)N3C(C(=O)O)=C(CSc4nnnn4C)CSC23)cc1Cl (stereo unspecified) | 194 | 9.03 |

| SMILES | area under intracellular growth-inhibition dose-response curve [1] | area under cytotoxicity dose-response curve [2] |
| --- | --- | --- |
| CO[C@@H]1[C@@H](OC(N)=O)[C@@H](O)C(Oc2ccc3c(O)c(NC(=O)c4ccc([O-])c(CC=C(C)C)c4)c(=O)oc3c2C)OC1(C)C.[Na+] (stereo partly specified) | 24.9 | 80.2 |
| CC(C)(C)C(=O)/C(=C/c1cccc([N+](=O)[O-])c1)n1cncn1 | 8.55 | 157 |
| O=C(Nc1ccc(N2CCN(C(=O)c3ccccc3)CC2)cc1)c1ccc([N+](=O)[O-])o1 | 127 | 24.1 |
| O=C(c1ccc(Cl)s1)N1CCN(c2ncccn2)CC1 | 86.8 | 31.4 |
| CCOc1c(Cl)cc(/C=N/NC(N)=S)cc1OC | 266 | < 0 |
| O=C1CN(C(=O)COC(=O)c2c(F)cccc2Cl)c2ccccc2N1 | 148 | < 0 |
| CN(Cc1ccccc1)C(=O)CCc1ccccc1 | 181 | < 0 |
| COc1cccc(OCC(=O)NC2CCCCC2)c1 | 226 | 94 |
| O=C(NCc1ccc2c(c1)OCO2)c1cccc(F)c1 | 222 | < 0 |
| Fc1ccc(C2=CC(c3cccs3)n3nnnc3N2)cc1 (stereo unspecified) | 216 | < 0 |
| COc1ccc(NS(=O)(=O)c2cccc(N3CC(=O)C(c4ccccc4)=C3N)c2)cc1 | 43.8 | 45.7 |
| Cc1ccc(-[n+]2c(-c3ccc(Br)cc3)cn3c2CCc2ccc4cccnc4c2-3)cc1.[Br-] | 96.2 | 29 |
| O=C(NNC(=O)c1cc2ccccc2o1)c1ccncc1 | 135 | 11.1 |
| CCN1C(=O)/C(=C\NC2CCCC(C)C2C)SC1=S (stereo unspecified) | 226 | 97.6 |
| C/C(CC(=O)Nc1cccc(F)c1)=N\NC(=O)c1ccncc1 | 272 | 9.96 |
| CCNC(=S)Nc1ccc(OCc2nc3ccccc3s2)cc1 | 273 | 35.3 |
| CCCCCc1ccc(OCCCC[n+]2ccccc2)c(CCCCC)c1.[Cl-] | 16 | 79.3 |
| CC(C)Oc1cccc(C(=O)N2CCCC2)c1 | 43.1 | 54.6 |
| Cc1ccc(/C=N/NC(=O)C2COc3ccccc3O2)s1 (stereo unspecified) | 196 | < 0 |
| CCOC(=O)c1ccccc1OCc1cc(/C=N/NC(=O)c2ccncc2)ccc1OC | 269 | 20.2 |
| COc1ccc(/C=N/Nc2nc(-c3ccc(C)cc3)c(NC(C)=O)s2)cc1 | 272 | < 0 |
| CC[C@@H](C)[C@@H]1CN([C@@H](CN2CCC[C@H]2CN2C(N)=NC[C@H]2C(C)C)C(C)C)C(=N)N1CCCC1CCCC1 | 191 | 32.4 |
| Cc1nc(SCc2cccc(F)c2)c2oc3ccccc3c2n1 | 186 | < 0 |
| CCC(=O)NC(=S)Nc1ccc(N2CCN(C(=O)c3ccc(Cl)cc3)CC2)cc1 | 269 | 3.79 |
